# Measurements as given in article PMC7168207, “Dibasic Derivatives of Phenylcarbamic Acid as Prospective Antibacterial Agents Interacting with Cytoplasmic Membrane” (Antibiotics, 2020).
# “And” between values parts separate entries of the source, which are not always exact repeats. Equal values may be shown once. Read-outs that look alike come from different tables or passages of the source.
# Columns and labels:
# S. aureus ATCC 29213 = test: MIC, broth microdilution; format: cell-based, Staphylococcus aureus
# Experimental: (§1) The modified broth microdilution method was used for in vitro evaluation of minimum inhibitory concentration. A small portion of bacterial colony cultivated overnight onto nutrient agar (Oxoid, Basingstoke, UK) with 5% bovine blood was suspended in sterile phosphate-buffered saline to get cell density 0.5 McFarland. This inoculum was diluted to reach the final concentration of bacterial cells 5 × 10^5 CFU/mL in the wells. […] For plates with staphylococci, cation adjusted Mueller–Hinton (CaMH) broth (Oxoid) was used; enterococci were cultivated in brain heart infusion (BHI, Oxoid). […] A drug-free control and a sterility control were included. Inoculated plates were incubated in aerobic atmosphere at 37 °C overnight. […] After evaluation of MICs, 10 µL of aliquots from the wells were put onto Mueller–Hinton agar. The agar plates were cultivated at 37 °C for 24 h. The minimum bactericidal concentration (MBC) was defined as the lowest concentration of the compound that killed 99.9% of the bacteria compared to the starting inoculum.
# [1] = tested on: methicillin-resistant S. aureus 63718; test: MIC, broth microdilution; format: cell-based, Staphylococcus aureus; conditions: MRSA1 = S. aureus 63718; for MIC: read-out: MICs
# Experimental: as §1
# [2] = tested on: methicillin-resistant S. aureus SA 3202; test: MIC, broth microdilution; format: cell-based, Staphylococcus aureus; conditions: MRSA3 = SA 3202; for MIC: read-out: MICs
# Experimental: as §1
# [3] = tested on: methicillin-resistant S. aureus SA 630; test: MIC, broth microdilution; format: cell-based, Staphylococcus aureus; conditions: MRSA2 = SA 630; for MIC: read-out: MICs
# Experimental: as §1
# E. faecalis ATCC 29212 = test: MIC, broth microdilution; format: cell-based, Enterococcus faecalis; conditions: EF = E. faecalis ATCC 29213
# Experimental: as §1
# [4] = tested on: vancomycin-resistant enterococci VRE 342B; test: MIC, broth microdilution; format: cell-based, Enterococcus faecalis; conditions: VRE1 = VRE 342B; for MIC: read-out: MICs
# Experimental: as §1
# [5] = tested on: vancomycin-resistant enterococci VRE 368; test: MIC, broth microdilution; format: cell-based, Enterococcus faecalis; conditions: VRE2 = VRE 368; for MIC: read-out: MICs
# Experimental: as §1
# [6] = tested on: vancomycin-resistant enterococci VRE 725B; test: MIC, broth microdilution; format: cell-based, Enterococcus faecalis; conditions: VRE3 = VRE 725B; for MIC: read-out: MICs
# Experimental: as §1
# [7] = tested on: human monocytic leukemia THP-1 cells; test: in vitro antiproliferative assay (WST-1); format: cell-based; conditions: THP-1 cells, WST-1, 24 h, read-out: Tox IC50
# Experimental: The preliminary in vitro screening of the antiproliferative effect of the investigated compounds was performed using a Water Soluble Tetrazolium salts-1 (WST-1) assay kit and a human monocytic leukemia THP-1 cell line by means of the method described recently. The principle of the WST-1 assay kit is the […] mitochondrial dehydrogenases by antiproliferative compounds. The activity of this enzyme directly correlates with the number of metabolically active cells in the culture. The antiproliferative effect was evaluated as the IC50 value (the concentration of the compound causing 50% inhibition of cell proliferation).
# Human monocytic leukemia THP-1 cells were used for in vitro antiproliferative assay. Cells were obtained from the European Collection of Cell Cultures (ECACC, Salisbury, UK) and routinely cultured in RPMI (Roswell Park Memorial Institute) 1640 medium supplemented with 10% fetal bovine serum, 2% L-glutamine, 1% penicillin, and streptomycin at 37 °C with 5% CO2. Cells were passaged at approximately one-week intervals. The antiproliferative activity of the compounds was determined using a Water Soluble Tetrazolium Salts-1 (WST-1, 2-(4-iodophenyl)-3-(4-nitrophenyl)-5-(2,4-disulfophenyl)-2H-tetrazolium) assay kit (Roche Diagnostics, Mannheim, Germany) according to the manufacturer’s instructions. The tested compounds were dissolved in DMSO and added in various compound concentrations to the cell suspension in the culture RPMI 1640 medium. The maximum concentration of DMSO in the assays never exceeded 0.1%. Subsequently, the cells were incubated at 37 °C with 5% CO2 for 24 h. For WST-1 assays, cells were seeded into 96-well plates (5 × 10^4 cells/well in 100 μL culture medium) in triplicate in serum-free RPMI 1640 medium, and measurements were taken 24 h after the treatment with the compounds. The median inhibition concentration values, IC50, were deduced through the production of a dose-response curve. All data were evaluated using GraphPad Prism 5.00 software (GraphPad Software, San Diego, CA, USA).
# [8] = tested on: S. aureus ATCC 29213 biofilm; test: biofilm inhibition assay (crystal violet); format: cell-based, Staphylococcus aureus; conditions: ≥80% inhibition of biofilm formation; for MBIC80 (minimum biofilm inhibitory concentration): 48 h
# Experimental: (§2) The ability of compounds 1f, 1g, and 1h to inhibit biofilm growth and destroy the matured biofilm of S. aureus ATCC 29213 was investigated. The inhibitory activity was studied by the method with crystal violet. The activity to disrupt matured biofilm was evaluated as a decrease of metabolic activity using the MTT assay.
# The plates were inoculated by inoculum of S. aureus ATCC 29213 grown in TSB + 2% glucose to exponential phase. Before the inoculation of the plate, the original inoculum was diluted to 1 McFarland and then 1:100 in fresh TSB + 2% glucose, to reach the final concentrations in the wells of […]. […] The plates were incubated at 37 °C for 48 h. After incubation, the contents of the wells were removed, and the plates were washed three times by sterile PBS. After drying, 125 μL of 0.5% crystal violet was added to each well and the plates were stained at room temperature for 20 min. Then the dye was removed, and the plates were washed three times by sterile PBS. The colored biofilm was detached from the wells using 33% solution of acetic acid. The absorbance at 595 nm was measured. As a blank, a non-inoculated plate treated in the same way was used. […] The minimum biofilm inhibitory concentration was the lowest concentration of the compounds, which inhibited the growth of 80% bacteria compared to the growth control. The experiment was made in duplicate and repeated at least three times.
# [9] = tested on: S. aureus ATCC 29213 biofilm; test: biofilm susceptibility / eradication of preformed biofilm (MTT); format: cell-based, Staphylococcus aureus; conditions: for MBEC80 (minimum biofilm eradication concentration): 80% reduction of metabolic activity of preformed biofilm, 24 h
# Experimental: as §2
# Biofilms were grown as described above but without the presence of the compounds. After 48 h of incubation at 37 °C, the contents of the wells were removed, and the plates were washed three times by sterile PBS. After washing, 100 µL of tested compounds in CaMH were added to the wells. […] A growth control containing 2.5% of DMSO in CaMH was included. The plates were incubated at 37 °C for 24 h, then the solutions of compounds were removed, and the plates were gently washed three times by sterile PBS. Bacterial viability was analyzed using 100 µL of 0.05 mg/mL MTT (3-(4,5-dimethylthiazol-2-yl)- 2,5-diphenyltetrazolium bromide) in PBS in each well. The plates with MTT were incubated at 37 °C for 1–2 h in darkness, until the blue formazan crystals appeared. MTT solution was removed and the plates were washed once by PBS. Crystals of formazan were dissolved using 17% sodium dodecysulphate in 40% dimethylformamid. The absorbance at 570 nm was measured and the percentage of eradication was counted according to the equation (3) % of eradication = 100 − OD570S/OD570C × 100 where OD570S is the absorbance of the sample at 570 nm and OD570C is the absorbance of the growth control at 570 nm. The minimum biofilm eradication concentration was the lowest concentration of the compound, which reduced the metabolic activity of the biofilm by 80% compared to the growth control. The experiment was made in duplicate and repeated at least three times.
# [10] = Staphylococcus aureus, ATCC29213, SA = S. aureus ATCC 29213, read-out: MICs
# [11] = Staphylococcus aureus, ATCC29213, Table 7, planktonic cells of S. aureus ATCC 29213, read-out: MIC
# [12] = Enterococcus faecalis, ATCC 29212 / ATCC 29213
# [13] = SA = S. aureus ATCC 29213, read-out: MICs
# [14] = Table 7, planktonic cells of S. aureus ATCC 29213
MIC (S. aureus ATCC 29213; [10]),MIC (S. aureus ATCC 29213; [11]) [µg/mL],MIC ([1]; Staphylococcus aureus),MIC ([2]; Staphylococcus aureus),MIC ([3]; Staphylococcus aureus),MIC (E. faecalis ATCC 29212; [12]),MIC ([4]; Enterococcus),MIC ([5]; Enterococcus),MIC ([6]; Enterococcus),Molecule,"IC50 ([7]; Homo sapiens, THP-1, 24 h) [nM]",MBIC80 (minimum biofilm inhibitory concentration) [8] [µg/mL],MBEC80 (minimum biofilm eradication concentration) [9] [µg/mL],MICs (S. aureus ATCC 29213; SA = S. aureus ATCC 29213) [µg/mL],MIC (S. aureus ATCC 29213; [13]) [µM],MIC (S. aureus ATCC 29213; [14]) [µg/mL],MICs [1] [µg/mL],MIC [1] [µM],MICs [2] [µg/mL],MIC [2] [µM],MICs [3] [µg/mL],further results
0.25 µg/mL and 0.63 µM,0.25,0.25 µg/mL and 0.63 µM,1 µg/mL and 2.53 µM,0.5 µg/mL and 1.26 µM,1 µg/mL and 2.53 µM,0.5 µg/mL and 1.26 µM,0.5 µg/mL and 1.26 µM,0.5 µg/mL and 1.26 µM,"CCCCCCCCCCCCCCCC[N+](C)(C)Cc1ccccc1 [CTC, cetalkonium chloride, reference compound]",1290 ± 70,0.25,>256,–,–,–,–,–,–,–,–,activity on preformed biofilm [9]: did not show any activity on preformed biofilm
> 256 µg/mL and > 1080 µM,> 256,> 256 µg/mL and > 1080 µM,> 256 µg/mL and > 1080 µM,> 256 µg/mL and > 1080 µM,> 256 µg/mL and > 1080 µM,> 256 µg/mL and > 1080 µM,> 256 µg/mL and > 1080 µM,> 256 µg/mL and > 1080 µM,"CCN(CC)CCOC(=O)c1ccc(N)cc1 [PRC, procaine, reference compound]",> 300000,>256,>256,–,–,–,–,–,–,–,–,–
–,–,–,–,–,–,–,–,–,"CCCCCCCCCCCCOS(=O)(=O)[O-].[Na+] [SDS, sodium dodecyl sulfate, reference compound]",–,32,128,128,443,128,128,443,64,222,64,MIC [3]: 222 µM; MIC (E. faecalis ATCC 29212): 443 µM; MICs (E. faecalis ATCC 29212): 128 µg/mL; MICs [4]: 256 µg/mL; MIC [4]: 887 µM; MICs [5]: 128 µg/mL; MIC [5]: 443 µM; MICs [6]: 128 µg/mL; MIC [6]: 443 µM
> 256 µg/mL and > 968 µM,> 256,> 256 µg/mL and > 968 µM,> 256 µg/mL and > 968 µM,> 256 µg/mL and > 968 µM,> 256 µg/mL and > 968 µM,> 256 µg/mL and > 968 µM,> 256 µg/mL and > 968 µM,> 256 µg/mL and > 968 µM,"CCCCNc1ccc(C(=O)OCCN(C)C)cc1 [TEC, tetracaine, reference compound]",224000 ± 6520,>256,>256,–,–,–,–,–,–,–,–,–
–,–,–,–,–,–,–,–,–,"carbethopendecinium bromide [CRB, reference compound]",–,0.25,64,0.25,0.59,0.25,0.25,0.59,2,4.73,0.5,MIC [3]: 1.18 µM; MIC (E. faecalis ATCC 29212): 1.18 µM; MICs (E. faecalis ATCC 29212): 0.5 µg/mL; MICs [4]: 0.5 µg/mL; MIC [4]: 1.18 µM; MICs [5]: 0.25 µg/mL; MIC [5]: 0.59 µM; MICs [6]: 0.5 µg/mL; MIC [6]: 1.18 µM; IC50 [7]: 1730 ± 80 nM; minimum biofilm inhibitory concentration relative to MIC against planktonic cells [8]: comparable to its MIC
